One test addresses FGFR2 (Homo sapiens (Human), UniProt P21802). Put plainly: FGFR2 Biochemical Caliper Assay. On the procedure:
Compounds of the present invention were also tested in a FGFR2 Biochemical Caliper Assay. Compounds were prepared in 10 mM DMSO solution and serially diluted into 11 concentrations by 3-fold dilution. […] 5 uL of ATP solution (100 uM) was added to start the reaction and the plate was incubated for 90 minutes, then 70 uL of stopping buffer (0.5M EDTA) was added to terminate the reaction. Each well was analyzed using EZ reader.

The subject of a further test is SNU16 cells. Put plainly: SNU16 Cancer Cell Line Proliferation Assay. The test is classed as cell-based. The settings on record: Homo sapiens; SNU-16 cells. The procedure, abridged: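 Proliferation read-out: CellTiter Glo chemiluminescence after 96 h compound exposure. Test compounds, serially diluted 3-fold over 11 points from a 10 mM DMSO stock, were added to SNU16 cells plated 24 h earlier at 37 degrees.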

Structures are written as SMILES.

Sequence of FGFR2 (P21802 22-821): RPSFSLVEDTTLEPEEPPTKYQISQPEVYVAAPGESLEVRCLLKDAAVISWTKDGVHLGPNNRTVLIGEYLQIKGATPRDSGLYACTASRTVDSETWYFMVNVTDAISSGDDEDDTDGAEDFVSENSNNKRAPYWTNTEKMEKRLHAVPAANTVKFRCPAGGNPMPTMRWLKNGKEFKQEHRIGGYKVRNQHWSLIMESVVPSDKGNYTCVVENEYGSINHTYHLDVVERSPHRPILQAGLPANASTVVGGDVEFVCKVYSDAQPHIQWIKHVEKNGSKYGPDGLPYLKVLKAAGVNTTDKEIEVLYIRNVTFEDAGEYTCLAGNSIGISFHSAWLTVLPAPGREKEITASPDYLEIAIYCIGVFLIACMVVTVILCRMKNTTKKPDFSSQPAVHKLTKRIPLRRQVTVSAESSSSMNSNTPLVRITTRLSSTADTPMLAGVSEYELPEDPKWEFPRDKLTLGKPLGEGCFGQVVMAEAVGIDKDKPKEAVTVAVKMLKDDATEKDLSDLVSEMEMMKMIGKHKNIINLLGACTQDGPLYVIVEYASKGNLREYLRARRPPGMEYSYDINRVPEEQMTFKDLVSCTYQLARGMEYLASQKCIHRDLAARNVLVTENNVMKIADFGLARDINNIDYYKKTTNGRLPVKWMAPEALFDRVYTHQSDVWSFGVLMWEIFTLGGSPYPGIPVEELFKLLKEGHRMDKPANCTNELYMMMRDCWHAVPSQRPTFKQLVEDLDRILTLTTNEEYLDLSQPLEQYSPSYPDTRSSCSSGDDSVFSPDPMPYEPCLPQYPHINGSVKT

For the molecule `C=CC(=O)N1CCC(c2c(-c3cnn(C4CCCC4)c3)c3c(N)ncnc3n2C)C1` (centres unmarked) [Example 726], the half-maximal inhibitory concentration (IC50) at FGFR2 and with SNU16 cells was 1000 to 100000 nM each time.

In the case of `C=C(C)C(=O)Nc1ccc(-c2c(-c3ccc(C(=O)NC4CCOC4)cc3)c3c(N)ncnc3n2C)cc1` (centres unmarked) [Example 283], the concentration for half-maximal inhibition (IC50) against FGFR2 is under 100 nM; with SNU16 cells it was at most 100 nM.

`C=C(C)C(=O)Nc1ccc(-c2c(-c3ccc(Oc4cccc(C)n4)cc3)c3c(N)ncnc3n2C)c(F)c1` [Example 341]: the results for the IC50 against FGFR2 and with SNU16 cells were under 100 nM and at most 100 nM, respectively.

As for `C=C(C)C(=O)Nc1ccc(-c2c(-c3ccc(Oc4nccc(C)n4)c(F)c3)c3c(N)ncnc3n2C)c(F)c1` [Example 482], the IC50 is under 100 nM against FGFR2 and at most 100 nM in the test on SNU16 cells.

`C=CC(=O)N1CC=C(c2c(-c3ccc(Oc4cccc(CC)n4)c(OC)c3)c3c(N)ncnc3n2C)CC1` [Example 690]: the figures for the IC50 against FGFR2 and in the test with SNU16 cells were under 100 nM and at most 100 nM, respectively.

`C=CC(=O)Nc1ccc(-c2c(-c3ccc(Oc4ncc(C)cn4)c(OC)c3)c3c(N)ncnc3n2C)cc1` [Example 32]: the concentration for half-maximal inhibition (IC50) is under 100 nM at FGFR2 and at most 100 nM with SNU16 cells.

On to `C=C(C)C(=O)Nc1ccc(-c2c(-c3ccc(Oc4nccc(C)n4)c(F)c3)c3c(N)ncnc3n2[C@H]2CCOC2)cc1` (single isomer, unassigned) [Example 538], for which the values for the IC50 against FGFR2 and with SNU16 cells were under 100 nM and at most 100 nM, respectively.

On to `C=CC(=O)N1CCC(c2c(-c3csc(CN4CCOCC4)c3)c3c(N)ncnc3n2C)C1` (centres unmarked) [Example 757], for which the IC50 against FGFR2 and in the test with SNU16 cells was 1000 to 100000 nM throughout.

As for `C=C(C)C(=O)Nc1ccc(-c2c(-c3ccc(Oc4cccc(C)n4)c(C#N)c3)c3c(N)ncnc3n2C)cc1` [Example 445], the IC50 at FGFR2 was under 100 nM; in the test on SNU16 cells, at most 100 nM.

On to `C=C(C)C(=O)Nc1ccc(-c2c(-c3ccc(C(=O)NCC4(CO)CC4)cc3)c3c(N)ncnc3n2C)cc1` [Example 372], for which the IC50 at FGFR2 was under 100 nM; in the test on SNU16 cells, 250 to 1000 nM.

In the case of `C=CC(=O)N1CCC(c2c(-c3ccc(CN4CCCC4)cc3)c3c(N)ncnc3n2C)C1` (centres unmarked) [Example 763], the 50% inhibitory concentration (IC50) against FGFR2 and in the test with SNU16 cells was 250 to 1000 nM each time.

Regarding `C=C(C)C(=O)Nc1ccc(-c2c(-c3ccc(C(=O)NC4COC4)cc3)c3c(N)ncnc3n2C)cc1` [Example 289], the IC50 at FGFR2 and in the test with SNU16 cells was 250 to 1000 nM throughout.

Turning to `C=C(C)C(=O)Nc1ccc(-c2[nH]c3ncnc(N)c3c2-c2ccc(Oc3cccc(C)n3)c(OCC)c2)cc1` [Example 788], the IC50 against FGFR2 is under 100 nM; with SNU16 cells, at most 100 nM.

For `C=C(C)C(=O)Nc1ccc(-c2c(-c3ccc4sc(C(=O)N(C)C)cc4c3)c3c(N)ncnc3n2C)cc1` [Example 180], the IC50 was 250 to 1000 nM on FGFR2 and 100 to 250 nM in the test on SNU16 cells.

Regarding `C=CC(=O)N1CCC(c2nc(-c3c(-c4ccc(Oc5cccc(C)n5)cc4)c4c(N)ncnc4n3C)no2)CC1` [Example 660], the concentration for half-maximal inhibition (IC50) on FGFR2 is under 100 nM; with SNU16 cells, at most 100 nM.

`C=C(C)C(=O)Nc1ccc(-c2c(-c3ccc(Oc4cccc(C)n4)cc3)c3c(N)ncnc3n2C)cc1OC` [Example 344]: the values for the IC50 against FGFR2 and in the test on SNU16 cells were 100 to 250 nM and at most 100 nM, respectively.

Turning to `C=CC(=O)N1CCC(c2c(-c3ccc(CN4CCOCC4=O)cc3)c3c(N)ncnc3n2C)C1` (centres unmarked) [Example 789], the half-inhibitory concentration (IC50) against FGFR2 and with SNU16 cells was 1000 to 100000 nM throughout.

With `C=CC(=O)N1CCC(c2c(-c3ccc(C(=O)N4CCOCC4)cc3)c3c(N)ncnc3n2C)C1` (centres unmarked) [Example 722], the concentration for half-maximal inhibition (IC50) against FGFR2 and in the test with SNU16 cells was 1000 to 100000 nM in each case.

For the molecule `C=C(C)C(=O)Nc1ccc(-c2c(-c3ccc(CN4CCOCC4=O)cc3)c3c(N)ncnc3n2C)cc1` [Example 188], the IC50 at FGFR2 lay within 1000 to 100000 nM; in the test with SNU16 cells, 250 to 1000 nM.

For `C=C(C)C(=O)Nc1ccc(-c2c(-c3ccc(C(=O)N4CCCC(C)C4)cc3)c3c(N)ncnc3n2C)cc1` (centres unmarked) [Example 255], the figures for the concentration for half-maximal inhibition (IC50) on FGFR2 and in the test on SNU16 cells were under 100 nM and at most 100 nM, respectively.

Consider `C=C(C)C(=O)Nc1ccc(-c2c(-c3ccc(Oc4nccc(C)n4)cc3F)c3c(N)ncnc3n2C)c(F)c1` [Example 543], for which the IC50 at FGFR2 was under 100 nM; in the test with SNU16 cells, at most 100 nM.

With `C=CC(=O)N1CCC(c2c(-c3ccc(-c4ncc[nH]4)cc3)c3c(N)ncnc3n2C)C1` (centres unmarked) [Example 765], the IC50 against FGFR2 was under 100 nM; with SNU16 cells it was 1000 to 100000 nM.

Take `C=C(C)C(=O)Nc1ccc(-c2c(-c3ccc(N4CCNC4=O)cc3)c3c(N)ncnc3n2C)cc1` [Example 194]: the IC50 on FGFR2 and in the test with SNU16 cells was 250 to 1000 nM throughout.

As for `C=C(C)C(=O)Nc1ccc(-c2c(-c3ccc(Oc4nccc(C)n4)c(F)c3)c3c(N)ncnc3n2C)c(OC)c1` [Example 502], the half-maximal inhibitory concentration (IC50) at FGFR2 was under 100 nM; with SNU16 cells, at most 100 nM.

Turning to `C=C(C)C(=O)Nc1ccc(-c2c(-c3ccc(Oc4cccc(F)c4)nc3)c3c(N)ncnc3n2C)cc1` [Example 167], the results for the 50% inhibitory concentration (IC50) at FGFR2 and in the test on SNU16 cells were 1000 to 100000 nM and 100 to 250 nM, respectively.

As to `C=CC(=O)N1CCC(n2cc(-c3c(-c4ccc(Oc5cccc(C)c5)c(OC)c4)c4c(N)ncnc4n3C)cn2)CC1` [Example 672], the IC50 against FGFR2 is 100 to 250 nM; in the test with SNU16 cells it was 250 to 1000 nM.

Turning to `C=C(C)C(=O)Nc1ccc(-c2c(-c3ccc(S(=O)(=O)N(C)CC(F)(F)F)cc3)c3c(N)ncnc3n2C)cc1` [Example 316], the IC50 against FGFR2 and with SNU16 cells was 250 to 1000 nM each time.

Consider `C=CC(=O)Nc1ccc(-c2c(C3=CCC(C(=O)N4CCCC4)CC3)c3c(N)ncnc3n2C)cc1` (centres unmarked) [Example 297], for which the half-inhibitory concentration (IC50) was under 100 nM against FGFR2 and at most 100 nM in the test with SNU16 cells.

`C=C(C)C(=O)N1CCC(n2cc(-c3c(-c4ccc(Oc5cccc(C)n5)cc4)c4c(N)ncnc4n3C)cn2)CC1` [Example 622]: the 50% inhibitory concentration (IC50) on FGFR2 was 250 to 1000 nM; in the test with SNU16 cells it was 1000 to 100000 nM.

For `C=CC(=O)N1CCC(n2nc(-c3c(-c4ccc(Oc5cccc(C)n5)c(OC)c4)c4c(N)ncnc4n3C)cc2C)CC1` [Example 684], the 50% inhibitory concentration (IC50) against FGFR2 and in the test on SNU16 cells was 1000 to 100000 nM throughout.

Consider `C=C(C)C(=O)Nc1ccc(-c2c(-c3ccc(Oc4nccc(C)n4)c(F)c3)c3c(N)ncnc3n2CCO)cc1` [Example 490], for which the values for the IC50 against FGFR2 and with SNU16 cells were under 100 nM and at most 100 nM, respectively.

In the case of `C=CC(=O)N1CCC(c2c(-c3ccc(-c4ccno4)cc3)c3c(N)ncnc3n2C)C1` (centres unmarked) [Example 768], the IC50 lay in the range of 250 to 1000 nM against FGFR2 and 100 to 250 nM with SNU16 cells.

Turning to `C=C(C)C(=O)Nc1ccc(-c2c(-c3ccc(Oc4ncccn4)c(OC)c3)c3c(N)ncnc3n2C)cc1` [Example 36], the half-inhibitory concentration (IC50) lay in the range of 250 to 1000 nM on FGFR2 and 100 to 250 nM in the test on SNU16 cells.

As to `C=CC(=O)N1CCC(c2c(-c3ccc(C(=O)C4CC4)cc3)c3c(N)ncnc3n2C)C1` (centres unmarked) [Example 761], the IC50 at FGFR2 and with SNU16 cells was 100 to 250 nM in each case.

With `C=C(C)C(=O)Nc1ccc(-c2c(-c3ccc(S(=O)(=O)NC4CCCC4OC)cc3)c3c(N)ncnc3n2C)cc1` (centres unmarked) [Example 318], the half-inhibitory concentration (IC50) at FGFR2 was 1000 to 100000 nM; with SNU16 cells, 250 to 1000 nM.

For `C=CC(=O)N1CCC(c2c(-c3ccc(Oc4ncccn4)c(OC)c3)c3c(N)ncnc3n2C)C1` (centres unmarked) [Example 687], the half-inhibitory concentration (IC50) against FGFR2 and in the test on SNU16 cells was 1000 to 100000 nM in each case.

As for `C=C(C)C(=O)Nc1ccc(-c2c(-c3cc(C)c(Oc4nccc(C)n4)c(OC)c3)c3c(N)ncnc3n2C)cc1` [Example 497], the IC50 was 100 to 250 nM at FGFR2 and at most 100 nM with SNU16 cells.

As to `C=C(C)C(=O)Nc1ccc(-c2c(C3=CC[C@@H](Oc4cccc(C)n4)CC3)c3c(N)ncnc3n2C)cc1` (single isomer, unassigned) [Example 451], the IC50 against FGFR2 was 250 to 1000 nM; in the test on SNU16 cells, at most 100 nM.

As to `C=C(C)C(=O)Nc1ccc(-c2c(-c3ccc(Oc4nccc(C)n4)c(Cl)c3)c3c(N)ncnc3n2C)cc1` [Example 505], the IC50 against FGFR2 was under 100 nM; in the test with SNU16 cells, at most 100 nM.

`C=C(C)C(=O)Nc1ccc(-c2c(-c3ccc(C(=O)NCC4CCCN4C)cc3)c3c(N)ncnc3n2C)cc1` (centres unmarked) [Example 377]: the IC50 at FGFR2 and in the test on SNU16 cells was 250 to 1000 nM each time.

Turning to `C=CC(=O)N1CCC=C(c2c(-c3ccc(Oc4cccc(C)n4)cc3)c3c(N)ncnc3n2C)C1` [Example 665], the IC50 against FGFR2 is 100 to 250 nM; with SNU16 cells, 250 to 1000 nM.

Consider `C=C(C)C(=O)Nc1ccc(-c2c(-c3ccc(Oc4ccn(C)n4)c(OC)c3)c3c(N)ncnc3n2C)cc1` [Example 100], for which the IC50 against FGFR2 lay in the range of 250 to 1000 nM; in the test with SNU16 cells, 100 to 250 nM.

Take `C=CC(=O)N1CCC(c2c(-c3ccc(OCCOC)cc3)c3c(N)ncnc3n2C)C1` (centres unmarked) [Example 717]: the figures for the IC50 against FGFR2 and in the test on SNU16 cells were 1000 to 100000 nM and 250 to 1000 nM, respectively.

`C=C(C)C(=O)Nc1ccc(-c2c(-c3ccc(C(=O)N4CC[C@@H]5C[C@@H]54)cc3)c3c(N)ncnc3n2C)c(F)c1` (single isomer, unassigned) [Example 464]: the half-maximal inhibitory concentration (IC50) against FGFR2 was under 100 nM; with SNU16 cells, at most 100 nM.

Regarding `C=C(C)C(=O)Nc1ccc(-c2c(-c3ccc(N4CCCCC4=O)cc3)c3c(N)ncnc3n2C)cc1` [Example 186], the IC50 at FGFR2 is 1000 to 100000 nM; in the test with SNU16 cells it was 250 to 1000 nM.

For the molecule `C=C(C)C(=O)Nc1ccc(-c2c(-c3ccc(C(=O)N4CC5CC5C4)cc3)c3c(N)ncnc3n2C)cc1` (centres unmarked) [Example 237], the IC50 on FGFR2 and with SNU16 cells was 100 to 250 nM each time.

In the case of `C=CC(=O)N1CCC(n2cc(-c3c(-c4ccc(OC)cc4)c4c(N)ncnc4n3C)cn2)CC1` [Example 618], the IC50 is under 100 nM at FGFR2 and at most 100 nM with SNU16 cells.

As for `C=CC(=O)N1CCC(c2[nH]c3ncnc(N)c3c2-c2ccc(Oc3cccc(C)n3)cc2)C1` (centres unmarked) [Example 744], the figures for the IC50 against FGFR2 and with SNU16 cells were under 100 nM and at most 100 nM, respectively.

As to `C=C(C)C(=O)Nc1ccc(-c2c(-c3ccc(C(=O)N4CCOCC4)cc3)c3c(N)ncnc3n2C)cc1` [Example 176], the figures for the IC50 against FGFR2 and with SNU16 cells were 1000 to 100000 nM and 250 to 1000 nM, respectively.

Values taken from US11780845B2 (Relay Therapeutics, Inc., priority 2019, dated 2023).
